Results on 27 compounds are retold here after patent US20260102383A1, “LPAR1 Inhibitors” (AbbVie Inc., priority 2024, published 2026).

The structures appear in SMILES notation.

This assay deals with T1, human LPAR1 (Homo sapiens, UniProt Q92633).
T1 construct: host or cells: TangoEDG2-bla U2OS cells
The experiment in a line: Arrestin assay (Arrestin Reporter EDG2-bla U2OS), inhibition of LPA-stimulated signal. In kind it is cell-based. The following applies: TangoEDG2-bla U2OS cells expressing human LPAR1; 0.25 μM LPA; read-out: Arrestin Reporter EDG2-bla U2OS Human Merged IC50. In outline: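 IC50 comes from a variable-slope 4-parameter fit of % inhibition, calculated from the beta-lactamase FRET ratio (emission 460/530 nm, excitation 409 nm, 2 h development at RT). Compounds, 10 μM down to 0.00006 μM in 3-fold steps, were given 1 h before 0.25 μM final LPA for 3 h in TangoEDG2-bla U2OS cells.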

T1 sequence (Q92633 whole entry): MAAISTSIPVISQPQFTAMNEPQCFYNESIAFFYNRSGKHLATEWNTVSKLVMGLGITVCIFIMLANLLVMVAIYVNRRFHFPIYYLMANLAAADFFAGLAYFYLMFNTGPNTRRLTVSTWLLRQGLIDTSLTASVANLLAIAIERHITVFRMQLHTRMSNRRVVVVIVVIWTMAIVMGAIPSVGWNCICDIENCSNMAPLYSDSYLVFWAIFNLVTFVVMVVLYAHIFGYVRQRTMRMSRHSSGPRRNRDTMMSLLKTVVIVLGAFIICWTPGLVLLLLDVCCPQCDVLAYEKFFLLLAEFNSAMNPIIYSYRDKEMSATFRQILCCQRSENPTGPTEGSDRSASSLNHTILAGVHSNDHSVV

For the compound `CC(C)c1ccnn1C1(C(=O)Nc2ccc(Cl)cc2OC(F)F)CCN(CC2(C(=O)O)[C@@H]3COC[C@@H]32)CC1` (stereo partly drawn) [Compound 177, (1S,5R)-6-[[4-[[4-chloro-2-(difluoromethoxy)phenyl]carbamoyl]-4-(5-isopropylpyrazol-1-yl)-1-piperidyl]methyl]-3-oxabicyclo[3.1.0]hexane-6-carboxylic acid], the IC50 came out at 92.5 nM.

In the case of `CC(C)c1c(F)cnn1C1(C(=O)Nc2ccc(Cl)cc2OC(F)F)CCN(CC(C)(C)C(=O)O)CC1` [Compound 240, 3-[4-[[4-chloro-2-(difluoromethoxy)phenyl]carbamoyl]-4-(4-fluoro-5-isopropyl-pyrazol-1-yl)-1-piperidyl]-2,2-dimethyl-propanoic acid], the IC50 is 23.8 nM.

In the case of `COC[C@@H](CN1CCC(C(=O)Nc2ccc(Cl)cc2OC(F)F)(n2ncc3c2C(C)(C)OC3)CC1)C(=O)O` [Compound 211, (2R)-2-[[4-[[4-chloro-2-(difluoromethoxy)phenyl]carbamoyl]-4-(6,6-dimethyl-4H-furo[3,4-c]pyrazol-1-yl)-1-piperidyl]methyl]-3-methoxy-propanoic acid], the IC50 was found to be 87.3 nM.

`CC1(C)OCc2cnn(C3(C(=O)Nc4ccc(Cl)cc4OC(F)F)CCN(C[C@H](C(=O)O)C4CCOCC4)CC3)c21` [Compound 176, (2R)-3-[4-[[4-chloro-2-(difluoromethoxy)phenyl]carbamoyl]-4-(6,6-dimethyl-4H-furo[3,4-c]pyrazol-1-yl)-1-piperidyl]-2-tetrahydropyran-4-yl-propanoic acid]: the IC50 came to 95.5 nM.

On to `CC(C)c1ccnn1C1(C(=O)Nc2ccc(Cl)cc2OC(F)F)CCN([C@H]2C[C@](C(=O)O)(C(F)F)C2)CC1` [Compound 221], for which the concentration for half-maximal inhibition (IC50) amounted to 27.7 nM.

For the compound `CC(C)c1ccnn1C1(C(=O)Nc2ccc(Cl)cc2OC(F)F)CCN(CC2(C(=O)O)CCN(C(=O)OCC(C)(C)C)CC2)CC1` [Compound 90, 4-[[4-[[4-chloro-2-(difluoromethoxy)phenyl]carbamoyl]-4-(5-isopropylpyrazol-1-yl)-1-piperidyl]methyl]-1-(2,2-dimethylpropoxycarbonyl) piperidine-4-carboxylic acid], the IC50 was determined as 5.54 nM.

As to `COc1cnn(CC(CN2CCC(C(=O)Nc3ccc(Cl)cc3OC(F)F)(n3nccc3C(C)C)CC2)C(=O)O)c1` (stereo not drawn) [Compound 193, 2-[[4-[[4-chloro-2-(difluoromethoxy)phenyl]carbamoyl]-4-(5-isopropylpyrazol-1-yl)-1-piperidyl]methyl]-3-(4-methoxypyrazol-1-yl)propanoic acid], the IC50 came to 31.3 nM.

Regarding `CC(C)c1ccnn1C1(C(=O)Nc2ccc(Cl)cc2OC(F)F)CCN(CC2(C(=O)O)CCN(c3cnccn3)CC2)CC1` [Compound 18, 4-[[4-[[4-chloro-2-(difluoromethoxy)phenyl]carbamoyl]-4-(5-isopropylpyrazol-1-yl)-1-piperidyl]methyl]-1-pyrazin-2-yl-piperidine-4-carboxylic acid], the IC50 is 11 nM.

As to `CC(C)c1ccnn1C1(C(=O)Nc2ccc(Cl)cc2OC(F)F)CCN(C[C@H](C(=O)O)c2cnn(C)c2)CC1` (single isomer, unassigned) [Compound 154], the IC50 came out at 64.1 nM.

As for `CC(C)c1ccnn1C1(C(=O)Nc2ccc(Cl)cc2OC(F)F)CCN(CC(=O)O)CC1` [Compound 1, 2-[4-[[4-chloro-2-(difluoromethoxy)phenyl]carbamoyl]-4-(5-isopropylpyrazol-1-yl)-1-piperidyl]acetic acid], the IC50 amounted to 54.8 nM.

On to `COC[C@@H](CN1CCC(C(=O)Nc2ccc(Cl)cc2OC(F)F)(n2ncc(Cl)c2C(C)C)CC1)C(=O)O` [Compound 206, (2R)-2-[[4-[[4-chloro-2-(difluoromethoxy)phenyl]carbamoyl]-4-(4-chloro-5-isopropyl-pyrazol-1-yl)-1-piperidyl]methyl]-3-methoxy-propanoic acid], for which the IC50 amounted to 16.9 nM.

For the compound `CC(C)c1ccnn1C1(C(=O)Nc2ccc(Cl)cc2OC(F)F)CCN(CC(C(=O)O)c2cnn(C)c2)CC1` (stereo not drawn) [Compound 147, 3-[4-[[4-chloro-2-(difluoromethoxy)phenyl]carbamoyl]-4-(5-isopropylpyrazol-1-yl)-1-piperidyl]-2-(1-methylpyrazol-4-yl)propanoic acid], the IC50 was 167 nM.

As for `CC(C)c1ccnn1C1(C(=O)Nc2ccc(Cl)cc2OC(F)F)CCN(CC(C(=O)O)C2CCOC(C)(C)C2)CC1` (stereo not drawn) [Compound 171, 3-[4-[[4-chloro-2-(difluoromethoxy)phenyl]carbamoyl]-4-(5-isopropylpyrazol-1-yl)-1-piperidyl]-2-(2,2-dimethyltetrahydropyran-4-yl)propanoic acid], the IC50 turned out to be 92.6 nM.

With `CC[C@H](CN1CCC(C(=O)Nc2ccc(Cl)cc2OC(F)F)(n2nccc2C(C)C)CC1)C(=O)O` [Compound 122, (2R)-2-[[4-[[4-chloro-2-(difluoromethoxy)phenyl]carbamoyl]-4-(5-isopropylpyrazol-1-yl)-1-piperidyl]methyl]butanoic acid], the IC50 came out at 23.9 nM.

On to `CCO[C@H](CN1CCC(C(=O)Nc2ccc(Cl)cc2OC(F)F)(n2nccc2C(C)C)CC1)C(=O)O` [Compound 144, (2R)-3-[4-[[4-chloro-2-(difluoromethoxy)phenyl]carbamoyl]-4-(5-isopropylpyrazol-1-yl)-1-piperidyl]-2-ethoxy-propanoic acid], for which the IC50 came to 55.9 nM.

As for `CCC(=O)N1CC[C@](CN2CCC(C(=O)Nc3ccc(Cl)cc3OC(F)F)(n3nccc3C(C)C)CC2)(C(=O)O)C1` [Compound 101, (3R)-3-[[4-[[4-chloro-2-(difluoromethoxy)phenyl]carbamoyl]-4-(5-isopropylpyrazol-1-yl)-1-piperidyl]methyl]-1-propanoyl-pyrrolidine-3-carboxylic acid], the IC50 was 80.9 nM.

Take `COc1cnn(C[C@@H](CN2CCC(C(=O)Nc3ccc(Cl)cc3OC(F)F)(n3nccc3C(C)C)CC2)C(=O)O)c1` [Compound 201, (2R)-2-[[4-[[4-chloro-2-(difluoromethoxy)phenyl]carbamoyl]-4-(5-isopropylpyrazol-1-yl)-1-piperidyl]methyl]-3-(4-methoxypyrazol-1-yl)propanoic acid]: the IC50 was determined as 30.6 nM.

Consider `CC(C)c1ccnn1C1(C(=O)Nc2ccc(Cl)cc2OC(F)F)CCN(CC2(C(=O)O)CCOCC2)CC1` [Compound 3, 4-[[4-[[4-chloro-2-(difluoromethoxy)phenyl]carbamoyl]-4-(5-isopropylpyrazol-1-yl)-1-piperidyl]methyl]tetrahydropyran-4-carboxylic acid], for which the IC50 was 14.7 nM.

Consider `CC(C)c1ccnn1C1(C(=O)Nc2ccc(Cl)cc2OC(F)F)CCN(C[C@H](C(=O)O)[C@H]2CCOC2)CC1` [Compound 148, (2R)-3-[4-[[4-chloro-2-(difluoromethoxy)phenyl]carbamoyl]-4-(5-isopropylpyrazol-1-yl)-1-piperidyl]-2-[(3R)-tetrahydrofuran-3-yl]propanoic acid], for which the IC50 came to 50.4 nM.

Take `COC12CC(C(=O)N3CCC(CN4CCC(C(=O)Nc5ccc(Cl)cc5OC(F)F)(n5nccc5C(C)C)CC4)(C(=O)O)CC3)(C1)C2` [Compound 68, 4-[[4-[[4-chloro-2-(difluoromethoxy)phenyl]carbamoyl]-4-(5-isopropylpyrazol-1-yl)-1-piperidyl]methyl]-1-(3-methoxybicyclo[1.1.1]pentane-1-carbonyl)piperidine-4-carboxylic acid]: the half-maximal inhibitory concentration (IC50) was 65.6 nM.

For `CC(C)c1c(F)cnn1C1(C(=O)Nc2ccc(Cl)cc2OC(F)F)CCN(C[C@]2(C(=O)O)CC[C@@H](O)CC2)CC1` [Compound 162, (1s,4s)-1-[[4-[[4-chloro-2-(difluoromethoxy)phenyl]carbamoyl]-4-(4-fluoro-5-isopropyl-pyrazol-1-yl)-1-piperidyl]methyl]-4-hydroxy-cyclohexanecarboxylic acid], the IC50 is 51.8 nM.

For `CC(C)c1ccnn1C1(C(=O)Nc2ccc(Cl)cc2OC(F)F)CCN(CC2(C(=O)O)CCN(C(=O)C[C@H]3CCOC3)CC2)CC1` [Compound 92, 4-[[4-[[4-chloro-2-(difluoromethoxy)phenyl]carbamoyl]-4-(5-isopropylpyrazol-1-yl)-1-piperidyl]methyl]-1-[2-[(3R)-tetrahydrofuran-3-yl]acetyl]piperidine-4-carboxylic acid], the IC50 was 119 nM.

Turning to `COCCC(=O)N1CC(CN2CCC(C(=O)Nc3ccc(Cl)cc3OC(F)F)(n3nccc3C(C)C)CC2)(C(=O)O)C1` [Compound 102, 3-[[4-[[4-chloro-2-(difluoromethoxy)phenyl]carbamoyl]-4-(5-isopropylpyrazol-1-yl)-1-piperidyl]methyl]-1-(3-methoxypropanoyl) azetidine-3-carboxylic acid], the IC50 turned out to be 158 nM.

As for `COc1cccc([C@H](CN2CCC(C(=O)Nc3ccc(Cl)cc3OC(F)F)(n3nccc3C(C)C)CC2)C(=O)O)c1` (single isomer, unassigned) [Compound 32], the IC50 stood at 3.11 nM.

Consider `CC(C)c1ccnn1C1(C(=O)Nc2ccc(Cl)cc2OC(F)F)CCN(C[C@@]2(C(=O)O)CCCO2)CC1` [Compound 20, (2R)-2-[[4-[[4-chloro-2-(difluoromethoxy)phenyl]carbamoyl]-4-(5-isopropylpyrazol-1-yl)-1-piperidyl]methyl] tetrahydrofuran-2-carboxylic acid], for which the IC50 worked out at 28.8 nM.

Turning to `CC(C)c1ccnn1C1(C(=O)Nc2ccc(Cl)cc2OC(F)F)CCN(CC2(CC(=O)O)CC2)CC1` [Compound 49, 2-[1-[[4-[[4-chloro-2-(difluoromethoxy)phenyl]carbamoyl]-4-(5-isopropylpyrazol-1-yl)-1-piperidyl]methyl]cyclopropyl]acetic acid], the 50% inhibitory concentration (IC50) was 73.2 nM.

In the case of `CC[C@@H](CN1CCC(C(=O)Nc2ccc(Cl)cc2OC(F)F)(n2nccc2C(C)C)CC1)C(=O)O` [Compound 126, (2S)-2-[[4-[[4-chloro-2-(difluoromethoxy)phenyl]carbamoyl]-4-(5-isopropylpyrazol-1-yl)-1-piperidyl]methyl] butanoic acid], the IC50 amounted to 22.1 nM.
